Measurements published in patent US11008333B2, “Crystalline forms of hydrochloride salts of thienopyrimidine compound” (HANMI PHARM. CO., LTD., priority 2015, dated 2021).
Values after ≈ are worked out from the molar mass of the structure shown. Like-named read-outs stand apart in the source and are kept apart here. Each block holds one compound with its values, some of them ahead of it.

How the values were obtained:
[1] = Dynamic vapor sorption (DVS), water absorption / hygroscopicity; type: physicochemical
Protocol: Dynamic vapor sorption (DVS) analysis was performed in a DVS advantage (Surface measurement system, United Kingdom) analyzer at 25° C. with a relative humidity of 0% to 90%. A sample in an amount of 10 mg was placed into a wire-mesh vapor sorption balance pan and then attached to a DVS advantage dynamic vapor sorption balance via surface measurement systems. Until a stable weight was achieved (99.5% completion of steps), the sample was applied to a ramping profile with a relative humidity of 10% to 90% with a 10% increase of the sample while maintaining the sample in each step. Upon completion of the sorption cycle, the sample was dried using the same process while maintaining a relative humidity of […]. The changes in the sample weight during the adsorption/desorption cycle (repeated 3 times) were recorded and the hygroscopicity of the sample was measured.

[2] = Storage under long-term, accelerated and stress testing conditions; type: physicochemical; details: for expected stability: expectation from DVS
[3] = Measurement of water solubility (HPLC); type: physicochemical; details: for pH of solution: solution of the water solubility test, 100 mg/mL in water
Protocol: Specifically, each sample of the polymorphs in an amount of 500 mg was added to 5 mL of water, blended at […] to 25° C. using a Voltamixer, and filtered with a GH Polypro membrane Acrodisc, PALL (pore size: 0.2 μm). The filtrate was diluted with a diluent used for HPLC in a 1:100 ratio to obtain the samples.

[4] = system: mutant epidermal growth factor receptor tyrosine kinase; details: disclosed in WO 2011/162515; cited from earlier work
[5] = system: cancer cells induced by a mutation in epidermal growth factor receptor (EGFR) tyrosine kinase; details: disclosed in WO 2011/162515; cited from earlier work
[6] = relative humidity of 10% to 90%, 25° C.
[7] = accelerated condition (40° C., relative humidity 75%)
[8] = long-term storage condition (25° C., relative humidity 60%)
[9] = non-ionic water, 500 mg in 5 mL (conc. of solution 100 mg/mL), 2θ° C. to 25° C., amount dissolved based on compound of Formula 1, HPLC
[10] = relative humidity of 40% or higher
[11] = relative humidity of 10% to 70%
[12] = relative humidity of 70% or higher

Structure (SMILES): C=CC(=O)Nc1cccc(Oc2nc(Nc3ccc(N4CCN(C)CC4)cc3)nc3ccsc23)c1 [Comparative Example 1, N-(3-(2-(4-(4-methylpiperazin-1-yl)phenylamino)thieno[3,2-d]pyrimidin-4-yloxy)phenyl)acrylamide]
level of water absorption (hygroscopicity) in DVS [1, 6]: very high level
expected stability [2, 7]: unstable
expected stability [2, 8]: unstable

Structure (SMILES): C=CC(=O)Nc1cccc(Oc2nc(Nc3ccc(N4CCN(C)CC4)cc3)nc3ccsc23)c1 [Example 1, N-(3-(2-(4-(4-methylpiperazin-1-yl)phenylamino)thieno[3,2-d]pyrimidin-4-yloxy)phenyl)acrylamide]
reversible water sorption and desorption in DVS ([1]; complete range of 0-90% RH): about 3%
level of water absorption (hygroscopicity) in DVS [1, 6]: 2-3%
level of water absorption (hygroscopicity) in DVS ([1]; relative humidity of 10% to 90%, 25° C., listed as ex. 1): very low level of change
stability [2, 7]: fully stable
stability [2, 8]: fully stable
stability ([2]; stress testing condition (60° C.)): fully stable
water solubility compared with the other forms ([3]; comparison of Table 16): highest water solubility
Solubility [3, 9]: 50390 µg/mL (≈ 104 mM)
pH of solution [3]: 1.7

Structure (SMILES): C=CC(=O)Nc1cccc(Oc2nc(Nc3ccc(N4CCN(C)CC4)cc3)nc3ccsc23)c1 [Example 3, N-(3-(2-(4-(4-methylpiperazin-1-yl)phenylamino)thieno[3,2-d]pyrimidin-4-yloxy)phenyl)acrylamide]
level of water absorption (hygroscopicity) in DVS ([1]; relative humidity of 10% to 40%): very low level
level of water absorption (hygroscopicity) in DVS [1, 10]: about 9%
level of water absorption (hygroscopicity) in DVS ([1]; relative humidity of 40% or higher, listed as ex. 3): about 9%
Solubility [3, 9]: 7760 µg/mL (≈ 15.9 mM)
pH of solution [3]: 2.1

Structure (SMILES): C=CC(=O)Nc1cccc(Oc2nc(Nc3ccc(N4CCN(C)CC4)cc3)nc3ccsc23)c1 [Example 4, N-(3-(2-(4-(4-methylpiperazin-1-yl)phenylamino)thieno[3,2-d]pyrimidin-4-yloxy)phenyl)acrylamide]
level of water absorption (hygroscopicity) in DVS ([1]; relative humidity of 10% to 30%): very high
level of water absorption (hygroscopicity) in DVS ([1]; relative humidity of 10% to 30%, listed as ex. 4): about 6%
level of water absorption (hygroscopicity) in DVS [1, 10]: very weak
level of water absorption (hygroscopicity) in DVS ([1]; relative humidity of 40% or higher, listed as ex. 4): very low and constant level
Solubility [3, 9]: 10660 µg/mL (≈ 21.9 mM)
pH of solution [3]: 1.7

Now from value to compound, other results behind:

level of water absorption (hygroscopicity) in DVS [1, 11]: very low
level of water absorption (hygroscopicity) in DVS ([1]; relative humidity of 10% to 70%, listed as ex. 5): very low level
level of water absorption (hygroscopicity) in DVS [1, 12]: about 7%
level of water absorption (hygroscopicity) in DVS ([1]; relative humidity of 70% or higher, listed as ex. 5): about 7%
Solubility [3, 9]: 420 µg/mL (≈ 0.863 mM)
pH of solution [3]: 4.7
Structure (SMILES): C=CC(=O)Nc1cccc(Oc2nc(Nc3ccc(N4CCN(C)CC4)cc3)nc3ccsc23)c1 [Example 5, N-(3-(2-(4-(4-methylpiperazin-1-yl)phenylamino)thieno[3,2-d]pyrimidin-4-yloxy)phenyl)acrylamide]

level of water absorption (hygroscopicity) in DVS [1, 6]: about 2%
level of water absorption (hygroscopicity) in DVS ([1]; relative humidity of 10% to 90%, 25° C., listed as ex. 6): about 2%
Solubility [3, 9]: 570 µg/mL (≈ 1.17 mM)
pH of solution [3]: 4.9
Structure (SMILES): C=CC(=O)Nc1cccc(Oc2nc(Nc3ccc(N4CCN(C)CC4)cc3)nc3ccsc23)c1 [Example 6, N-(3-(2-(4-(4-methylpiperazin-1-yl)phenylamino)thieno[3,2-d]pyrimidin-4-yloxy)phenyl)acrylamide]

level of water absorption (hygroscopicity) in DVS [1, 11]: very low
level of water absorption (hygroscopicity) in DVS ([1]; relative humidity of 10% to 90%, 25° C., listed as ex. 7): about 14%
level of water absorption (hygroscopicity) in DVS [1, 12]: about 14%
Structure (SMILES): C=CC(=O)Nc1cccc(Oc2nc(Nc3ccc(N4CCN(C)CC4)cc3)nc3ccsc23)c1 [Example 7, N-(3-(2-(4-(4-methylpiperazin-1-yl)phenylamino)thieno[3,2-d]pyrimidin-4-yloxy)phenyl)acrylamide]

Solubility [3, 9]: 0.1 µg/mL
pH of solution [3]: 7.3
Solubility ([3]; water, 20 °C, water, thermodynamic from solid, amorphous free base, read-out: water solubility): < 0.1 µg/mL
Structure (SMILES): C=CC(=O)Nc1cccc(Oc2nc(Nc3ccc(N4CCN(C)CC4)cc3)nc3ccsc23)c1 [Formula 1 (amorphous free base), N-(3-(2-(4-(4-methylpiperazin-1-yl)phenylamino)thieno[3,2-d]pyrimidin-4-yloxy)phenyl)acrylamide]
inhibitory activity for mutant EGFR tyrosine kinase [4]: selective inhibitory activity
inhibitory activity against growth of cancer cells induced by EGFR mutation, and drug resistance thereof [5]: selective and effective inhibitory activity
